Here are results for 10 compounds from publication PMC4653046 (Bioorganic & medicinal chemistry letters, 2015).

SMILES strings stand for the structures. ≈ marks a conversion by molar mass, not a printed value.

Data set [1] deals with BJ-derived cell lines (BJeLR, DRD, BJeHLT, BJeH). Kind of data set: potency and genotype-selective lethality in BJ-derived isogenic cell lines. In kind it is cell-based, human. Particulars: for potency in HRAS^G12V-overexpressing cell lines: BJeLR, DRD cells.
Data set [2] in a line: metabolic stability in mouse liver microsomes. The class given is in vitro ADME. Particulars: for half-life: mouse, liver microsomes, pH 7.4; for metabolic stability: mouse liver microsomes, 37 °C, pH 7.4, NADPH-generating system.
Another data set can be described thus: water solubility. In kind it is physicochemical.
The subject of data set [3] is HT-1080 human fibrosarcoma cell line. As to the kind of experiment: growth inhibition of HT-1080 cells. In kind it is cell-based. Particulars: for growth inhibition: HT-1080 cells, 48 h treatment.
A short description of data set [4]: stability in mouse plasma. The conditions noted are these: 500 ng/mL, 37 °C, up until 120 min. The class given is in vitro ADME.
The subject of data set [5] is NRAS mutant human HT-1080 fibrosarcoma. Particulars: nude mice; cited from earlier work.

On to `CC(C)Oc1ccc(C=O)cc1-n1c(CN2CCN(C(=O)COc3ccc(Cl)cc3)CC2)nc2ccccc2c1=O` [AE, aldehyde erastin, reference compound], for which the “potency in HRAS^G12V-overexpressing cell lines” value (shortened to “potency”) in data set [1] is “low nanomolar potencies”. In data set [2], this compound had a half-life of less than 5 min.

For `C=CCN1CCN(CC(=O)c2ccc(OC(C)C)c(-n3c(CN4CCN(C(=O)COc5ccc(Cl)cc5)CC4)nc4ccccc4c3=O)c2)CC1` [APKE, N-allylpiperazine ketone erastin], the metabolic stability entry in data set [2] is recorded as “medium to poor metabolic stability”.

`CCOc1ccccc1-n1c(C(C)N2CCN(C(=O)COc3ccc(Cl)cc3)CC2)nc2ccccc2c1=O` (centres unmarked) [Erastin, erastin] yielded a solubility in the data set “water solubility” of 86 µM (≈ 47 µg/mL).

Turning to `CC(C)Oc1ccc(C(=O)CF)cc1-n1c(CN2CCN(C(=O)COc3ccc(Cl)cc3)CC2)nc2ccccc2c1=O` [FKE, α-fluoro ketone erastin], the “potency” value in data set [1] is “low nanomolar potencies”. Moreover, the metabolic stability result in data set [2] is given as “medium to poor metabolic stability”.

`CC(C)Oc1ccc(C(=O)Cn2ccnc2)cc1-n1c(CN2CCN(C(=O)COc3ccc(Cl)cc3)CC2)nc2ccccc2c1=O` [IKE, imidazole ketone erastin]: the “selective lethality to BJeLR and DRD cells compared to BJeH and BJeHLT cells” value in data set [1] (4 isogenic BJ-derived cell lines) is on record as “selective lethality”. Further, in data set [1], the “potency” value was “low nanomolar potencies”. Further, the growth inhibition entry in data set [3] is recorded as “complete growth inhibition”. In data set [3] (Homo sapiens, HT-1080, 48 h), this compound gave a GI50 of 310 nM. Further, the “stability in mouse plasma” value in data set [4] is given as “remained stable”.

As for `CC(=O)c1ccc(OC(C)C)c(-n2c(CN3CCN(C(=O)COc4ccc(Cl)cc4)CC3)nc3ccccc3c2=O)c1` [KE], in data set [1], the “potency” value was “low nanomolar potencies”. The compound also yielded a half-life in data set [2] of less than 5 min.

For the compound `CC(C)Oc1ccc(C(=O)CN2CCN(C)CC2)cc1-n1c(CN2CCN(C(=O)COc3ccc(Cl)cc3)CC2)nc2ccccc2c1=O` [MPKE, N-methylpiperazine ketone erastin], the metabolic stability entry in data set [2] was “medium to poor metabolic stability”.

With `CC(C)Oc1ccc(CN2CCNCC2)cc1-n1c(CN2CCN(C(=O)COc3ccc(Cl)cc3)CC2)nc2ccccc2c1=O` [PE, piperazine erastin], the “effect on the growth of already established tumors” value in data set [5] is “limited effect”.

Consider `CC(C)Oc1ccc(C(=O)CN2CCNCC2)cc1-n1c(CN2CCN(C(=O)COc3ccc(Cl)cc3)CC2)nc2ccccc2c1=O` [PKE, piperazine ketone erastin], for which the “potency” value in data set [1] is on record as “low nanomolar potencies”. In addition, the half-life in data set [2] is more than 90 min. In addition, the growth inhibition entry in data set [3] is on record as “complete growth inhibition”. In addition, in data set [4], the “stability in mouse plasma” value was “remained stable”.

As to `COc1ccc(CN2CCN(CC(=O)c3ccc(OC(C)C)c(-n4c(CN5CCN(C(=O)COc6ccc(Cl)cc6)CC5)nc5ccccc5c4=O)c3)CC2)cc1` [PMB-PKE, N-p-methoxybenzylpiperazine ketone erastin], in data set [2], the metabolic stability result was “medium to poor metabolic stability”.
